EP1247803A2, “Indolinone compounds suitable for modulation of protein kinases” (Sugen, Inc., priority 1996, dated 1998)

Key:
EGFR = target: T1, EGFR (Homo sapiens, UniProt P00533); assay: EGFR ELISA assay (in vitro kinase activity, EGFR captured from A431 cell lysate); type: biochemical; set-up: concentration or dose not given beside the values
T1 construct: Add 7 ug A431 cell lysate per well (EGFR source); endogenous in cells; host or cells: A431
In short: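 Receptor autophosphorylation was read by ELISA: anti-phosphotyrosine serum and an HRP-linked secondary with ABTS substrate, absorbance at 410 nm (reference 630 nm). The reaction ran 5 min with 3 µM ATP and 5 mM MnCl2 and was quenched by 20 mM EDTA. Compounds were first incubated 30 min with antibody-captured EGFR from A431 cell lysate.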

PDGF-R = PDGF-R (Homo sapiens, UniProt P09619); assay: PDGF-R ELISA; type: cell-based
PDGF-R, sequence (P09619 33-1106, species assumed): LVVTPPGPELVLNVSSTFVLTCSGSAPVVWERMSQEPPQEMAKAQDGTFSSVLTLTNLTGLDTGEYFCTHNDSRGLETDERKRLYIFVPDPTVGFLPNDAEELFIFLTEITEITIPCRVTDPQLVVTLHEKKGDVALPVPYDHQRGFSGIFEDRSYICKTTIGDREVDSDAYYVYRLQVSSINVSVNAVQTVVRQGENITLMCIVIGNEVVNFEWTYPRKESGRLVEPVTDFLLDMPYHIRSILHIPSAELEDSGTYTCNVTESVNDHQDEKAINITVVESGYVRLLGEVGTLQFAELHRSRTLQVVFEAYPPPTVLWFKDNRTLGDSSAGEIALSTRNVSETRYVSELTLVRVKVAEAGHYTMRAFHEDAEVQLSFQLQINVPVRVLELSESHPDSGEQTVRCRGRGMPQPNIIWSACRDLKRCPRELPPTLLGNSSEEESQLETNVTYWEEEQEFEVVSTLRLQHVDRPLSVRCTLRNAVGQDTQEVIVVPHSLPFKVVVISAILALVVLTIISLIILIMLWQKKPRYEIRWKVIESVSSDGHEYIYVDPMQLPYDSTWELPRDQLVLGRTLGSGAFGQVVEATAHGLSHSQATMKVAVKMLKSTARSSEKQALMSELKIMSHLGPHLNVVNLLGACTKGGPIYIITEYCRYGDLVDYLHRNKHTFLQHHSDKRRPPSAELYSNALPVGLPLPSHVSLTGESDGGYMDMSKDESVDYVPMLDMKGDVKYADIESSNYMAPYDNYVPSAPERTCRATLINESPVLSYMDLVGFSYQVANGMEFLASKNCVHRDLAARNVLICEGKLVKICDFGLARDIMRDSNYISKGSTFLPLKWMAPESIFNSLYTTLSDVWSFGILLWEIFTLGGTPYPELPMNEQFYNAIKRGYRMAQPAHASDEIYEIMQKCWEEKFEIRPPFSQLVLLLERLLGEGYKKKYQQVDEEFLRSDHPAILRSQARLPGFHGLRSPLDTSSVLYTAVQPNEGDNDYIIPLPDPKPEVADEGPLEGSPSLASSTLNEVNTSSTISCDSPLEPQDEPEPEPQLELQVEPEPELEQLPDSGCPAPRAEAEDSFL
Excerpt: A PDGF-R ELISA is described in International Patent Publication No. WO 96/40116, published December 19, 1996 by Tang et al.

MET = MET biochemical kinase assay; set-up: species or system human; concentration or dose not given beside the values
In short: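 Human MET was captured from cell lysates onto ELISA plates via goat anti-rabbit Fc and rabbit polyclonal antibody to the MET cytoplasmic domain. After washing, test compounds and kinase buffer with ATP and divalent metal ions were added. Phosphotyrosine was detected with HRP-conjugated anti-phosphotyrosine antibody and TMB colorimetric read-out.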

T1 sequence (P00533 25-1210): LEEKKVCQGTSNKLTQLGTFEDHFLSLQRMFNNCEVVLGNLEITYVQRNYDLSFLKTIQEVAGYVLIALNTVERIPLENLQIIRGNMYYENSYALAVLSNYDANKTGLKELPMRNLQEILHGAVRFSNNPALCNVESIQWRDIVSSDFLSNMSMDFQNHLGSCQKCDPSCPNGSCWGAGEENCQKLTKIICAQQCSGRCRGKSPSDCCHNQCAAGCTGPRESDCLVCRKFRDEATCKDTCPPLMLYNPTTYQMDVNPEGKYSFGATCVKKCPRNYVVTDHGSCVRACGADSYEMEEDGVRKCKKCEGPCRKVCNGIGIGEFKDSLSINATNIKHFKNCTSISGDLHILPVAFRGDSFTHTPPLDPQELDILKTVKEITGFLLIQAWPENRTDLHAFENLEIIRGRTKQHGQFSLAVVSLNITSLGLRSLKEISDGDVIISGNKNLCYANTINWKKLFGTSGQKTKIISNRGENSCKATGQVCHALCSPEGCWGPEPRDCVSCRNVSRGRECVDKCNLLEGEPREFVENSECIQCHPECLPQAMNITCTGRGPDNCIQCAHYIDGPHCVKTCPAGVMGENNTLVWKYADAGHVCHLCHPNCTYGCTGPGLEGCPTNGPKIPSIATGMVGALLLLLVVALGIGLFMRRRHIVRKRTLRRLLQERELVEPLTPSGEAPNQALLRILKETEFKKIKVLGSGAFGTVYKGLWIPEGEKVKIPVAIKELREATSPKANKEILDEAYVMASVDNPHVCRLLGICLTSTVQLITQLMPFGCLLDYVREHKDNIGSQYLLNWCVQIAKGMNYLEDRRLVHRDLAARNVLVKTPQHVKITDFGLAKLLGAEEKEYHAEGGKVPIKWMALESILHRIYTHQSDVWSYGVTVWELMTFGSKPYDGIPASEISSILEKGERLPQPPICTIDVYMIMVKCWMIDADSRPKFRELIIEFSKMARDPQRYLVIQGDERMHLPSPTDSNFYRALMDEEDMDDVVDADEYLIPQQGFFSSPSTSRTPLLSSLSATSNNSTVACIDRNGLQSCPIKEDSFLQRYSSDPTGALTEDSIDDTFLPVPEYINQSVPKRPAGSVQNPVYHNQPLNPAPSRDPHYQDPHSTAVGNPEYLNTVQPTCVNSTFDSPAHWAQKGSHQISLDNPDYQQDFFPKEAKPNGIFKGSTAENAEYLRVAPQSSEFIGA

## COc1cc(N(C)C)ccc1C=C1C(=O)Nc2ccc(CCCl)cc21 [10728/G05]
EGFR
  Biochem EGFR %Inhibition: 7.2%
PDGF-R
  PDGF Kinase %Inhibition: -4.4%
MET
  Met Kinase % Inhibition: 63.1%

## COc1ccc2ccccc2c1C=C1C(=O)Nc2ccc(S(=O)(=O)Nc3ccc(C(F)(F)F)cc3)cc21 [10729/E02]
EGFR
  Biochem EGFR %Inhibition: 8.0%
PDGF-R
  PDGF Kinase %Inhibition: 28.4%
MET
  Met Kinase % Inhibition: 11.7%

## CSc1ccc(C=C2C(=O)Nc3ccc(S(=O)(=O)Nc4ccc(C(F)(F)F)cc4)cc32)cc1 [10729/E04]
EGFR
  Biochem EGFR %Inhibition: 19.5%
PDGF-R
  PDGF Kinase %Inhibition: 26.5%
MET
  Met Kinase % Inhibition: 9.8%

## O=C1Nc2ccc(I)cc2C1=Cc1cccc(Oc2ccccc2)c1 [10729/B06]
EGFR
  Biochem EGFR %Inhibition: 56.9%
PDGF-R
  PDGF Kinase %Inhibition: -19.2%
MET
  Met Kinase % Inhibition: 61.1%

## COc1ccc2ccccc2c1C=C1C(=O)Nc2ccc(Br)c(C)c21 [10729/C02]
EGFR
  Biochem EGFR %Inhibition: 16.9%
PDGF-R
  PDGF Kinase %Inhibition: 9.1%
MET
  Met Kinase % Inhibition: 18.2%

## Cc1ccsc1C=C1C(=O)Nc2ccc(Br)c(C)c21 [10729/C05]
EGFR
  Biochem EGFR %Inhibition: 21.8%
PDGF-R
  PDGF Kinase %Inhibition: -5.6%
MET
  Met Kinase % Inhibition: 15.5%

## CSc1ccc(C=C2C(=O)Nc3ccc(Br)c(C)c32)cc1 [10729/C04]
EGFR
  Biochem EGFR %Inhibition: 35.9%
PDGF-R
  PDGF Kinase %Inhibition: 4.2%
MET
  Met Kinase % Inhibition: 20.7%

## CNS(=O)(=O)c1ccc2c(c1)C(=Cc1ccncc1)C(=O)N2 [10729/D09]
EGFR
  Biochem EGFR %Inhibition: 22.1%
PDGF-R
  PDGF Kinase %Inhibition: -12.1%
MET
  Met Kinase % Inhibition: 34.8%

## O=C1Nc2ccc(CCCl)cc2C1=Cc1ccc2c(c1)Cc1ccccc1-2 [10728/G06]
EGFR
  Biochem EGFR %Inhibition: -14.1%
PDGF-R
  PDGF Kinase %Inhibition: -13.3%
MET
  Met Kinase % Inhibition: 25.3%

## CNS(=O)(=O)c1ccc2c(c1)C(=Cc1cc(OC)c3c(c1)OCO3)C(=O)N2 [10728/D11]
EGFR
  Biochem EGFR %Inhibition: 22.1%
PDGF-R
  PDGF Kinase %Inhibition: -10.2%
MET
  Met Kinase % Inhibition: 52.5%

## CSc1ccc(C=C2C(=O)Nc3ccc(I)cc32)cc1 [10729/B04]
EGFR
  Biochem EGFR %Inhibition: 63.7%
PDGF-R
  PDGF Kinase %Inhibition: -22.7%
MET
  Met Kinase % Inhibition: 43.8%

## O=C1Nc2c(Br)cc(Br)cc2C1=CC1C=CCCC1 (stereo not shown) [10729/A11]
EGFR
  Biochem EGFR %Inhibition: 15.5%
PDGF-R
  PDGF Kinase %Inhibition: -11.7%
MET
  Met Kinase % Inhibition: 49.9%

## COc1cc(C=C2C(=O)Nc3ccc(CCCl)cc32)cc2c1OCO2 [10728/G11]
EGFR
  Biochem EGFR %Inhibition: 16.1%
PDGF-R
  PDGF Kinase %Inhibition: -12.8%
MET
  Met Kinase % Inhibition: 71.4%

## COc1ccc(OC)c(C=C2C(=O)Nc3ccc(S(=O)(=O)Nc4ccc(C(F)(F)F)cc4)cc32)c1 [10728/E02]
EGFR
  Biochem EGFR %Inhibition: 7.4%
PDGF-R
  PDGF Kinase %Inhibition: 15.2%
MET
  Met Kinase % Inhibition: 5.4%

## CNS(=O)(=O)c1ccc2c(c1)C(=Cc1c(F)cccc1C(F)(F)F)C(=O)N2 [10728/D09]
EGFR
  Biochem EGFR %Inhibition: -2.9%
PDGF-R
  PDGF Kinase %Inhibition: -3.9%
MET
  Met Kinase % Inhibition: 27.6%

## CSc1ccc(C=C2C(=O)Nc3c(Br)cc(Br)cc32)cc1 [10729/A04]
EGFR
  Biochem EGFR %Inhibition: 58.8%
PDGF-R
  PDGF Kinase %Inhibition: -16.6%
MET
  Met Kinase % Inhibition: 45.4%

## O=C1Nc2c(Br)cc(Br)cc2C1=Cc1cccc(Oc2ccccc2)c1 [10729/A06]
EGFR
  Biochem EGFR %Inhibition: 36.5%
PDGF-R
  PDGF Kinase %Inhibition: -8.6%
MET
  Met Kinase % Inhibition: 29.8%

## COc1ccc(C=C2C(=O)Nc3ccc(Br)c(C)c32)c2ccccc12 [10729/C03]
EGFR
  Biochem EGFR %Inhibition: 25.7%
PDGF-R
  PDGF Kinase %Inhibition: 13.7%
MET
  Met Kinase % Inhibition: 13.5%

## CNS(=O)(=O)c1ccc2c(c1)C(=Cc1ccccc1OCC(=O)O)C(=O)N2 [10728/D10]
EGFR
  Biochem EGFR %Inhibition: 18.6%
PDGF-R
  PDGF Kinase %Inhibition: -3.9%
MET
  Met Kinase % Inhibition: 30.5%

## O=C1Nc2ccc(I)cc2C1=Cc1cccnc1 [10729/B08]
EGFR
  Biochem EGFR %Inhibition: 53.2%
PDGF-R
  PDGF Kinase %Inhibition: -13.6%
MET
  Met Kinase % Inhibition: 66.0%

## COc1ccc(OC)c(C=C2C(=O)Nc3ccc(S(=O)(=O)NN4CCOCC4)cc32)c1 [10728/F02]
EGFR
  Biochem EGFR %Inhibition: 4.4%
PDGF-R
  PDGF Kinase %Inhibition: 7.2%
MET
  Met Kinase % Inhibition: 25.6%

## COc1cc(C=C2C(=O)Nc3ccc(S(=O)(=O)Nc4ccc(C(F)(F)F)cc4)cc32)cc2c1OCO2 [10728/E11]
EGFR
  Biochem EGFR %Inhibition: -5.9%
PDGF-R
  PDGF Kinase %Inhibition: 8.9%
MET
  Met Kinase % Inhibition: 53.1%

## COc1cccc(OC)c1C=C1C(=O)Nc2ccc(CCCl)cc21 [10728/G03]
EGFR
  Biochem EGFR %Inhibition: -2.0%
PDGF-R
  PDGF Kinase %Inhibition: -8.4%
MET
  Met Kinase % Inhibition: 8.8%

## CNS(=O)(=O)c1ccc2c(c1)C(=Cc1cccnc1)C(=O)N2 [10729/D08]
EGFR
  Biochem EGFR %Inhibition: 10.3%
PDGF-R
  PDGF Kinase %Inhibition: -21.1%
MET
  Met Kinase % Inhibition: 27.6%

## Cc1c(Br)ccc2c1C(=Cc1cccnc1)C(=O)N2 [10729/C08]
EGFR
  Biochem EGFR %Inhibition: 25.4%
PDGF-R
  PDGF Kinase %Inhibition: -13.6%
MET
  Met Kinase % Inhibition: 55.7%

## COc1ccc(C=C2C(=O)Nc3ccc(S(=O)(=O)Nc4ccc(C(F)(F)F)cc4)cc32)c2ccccc12 [10729/E03]
EGFR
  Biochem EGFR %Inhibition: 20.1%
PDGF-R
  PDGF Kinase %Inhibition: 29.2%
MET
  Met Kinase % Inhibition: 27.5%

## O=C1Nc2ccc(S(=O)(=O)Nc3ccc(C(F)(F)F)cc3)cc2C1=Cc1cccc(Oc2ccccc2)c1 [10729/E06]
EGFR
  Biochem EGFR %Inhibition: 43.7%
PDGF-R
  PDGF Kinase %Inhibition: 24.7%
MET
  Met Kinase % Inhibition: -0.7%

## O=C1Nc2c(Br)cc(Br)cc2C1=Cc1cccnc1 [10729/A08]
EGFR
  Biochem EGFR %Inhibition: 37.8%
PDGF-R
  PDGF Kinase %Inhibition: -23.4%
MET
  Met Kinase % Inhibition: 48.1%

## CNS(=O)(=O)c1ccc2c(c1)C(=Cc1c(OC)ccc3ccccc13)C(=O)N2 [10729/D02]
EGFR
  Biochem EGFR %Inhibition: -5.7%
PDGF-R
  PDGF Kinase %Inhibition: 15.6%
MET
  Met Kinase % Inhibition: 31.7%

## Cc1ccc(C=C2C(=O)Nc3c(Br)cc(Br)cc32)s1 [10717/A07]
EGFR
  Biochem EGFR %Inhibition: 20.2%
MET
  Met Kinase % Inhibition: 29.2%

## CCOC(=O)c1c(C)[nH]c(C=C2C(=O)Nc3ccc(I)cc32)c1C [10718/B02]
EGFR
  Biochem EGFR %Inhibition: 24.9%
MET
  Met Kinase % Inhibition: 52.9%

## COc1ccc(OC)c(C=C2C(=O)Nc3ccc(CCCl)cc32)c1 [10728/G02]
EGFR
  Biochem EGFR %Inhibition: -10.2%
PDGF-R
  PDGF Kinase %Inhibition: 0.9%
MET
  Met Kinase % Inhibition: 7.1%

## O=C1Nc2ccc(I)cc2C1=Cc1ccncc1 [10729/B09]
EGFR
  Biochem EGFR %Inhibition: 51.6%
PDGF-R
  PDGF Kinase %Inhibition: -6.4%
MET
  Met Kinase % Inhibition: 47.2%

## O=C1Nc2ccc(S(=O)(=O)Nc3ccc(C(F)(F)F)cc3)cc2C1=Cc1c(F)cccc1C(F)(F)F [10728/E09]
EGFR
  Biochem EGFR %Inhibition: 0.1%
PDGF-R
  PDGF Kinase %Inhibition: 22.3%
MET
  Met Kinase % Inhibition: 40.0%

## O=C1Nc2ccc(I)cc2C1=Cc1ccccn1 [10729/B07]
EGFR
  Biochem EGFR %Inhibition: 69.0%
PDGF-R
  PDGF Kinase %Inhibition: -33.2%
MET
  Met Kinase % Inhibition: 58.2%

## CNS(=O)(=O)c1ccc2c(c1)C(=Cc1cccc(Oc3ccccc3)c1)C(=O)N2 [10729/D06]
EGFR
  Biochem EGFR %Inhibition: 45.7%
PDGF-R
  PDGF Kinase %Inhibition: 2.7%
MET
  Met Kinase % Inhibition: 30.2%

## Cc1ccsc1C=C1C(=O)Nc2ccc(S(=O)(=O)Nc3ccc(C(F)(F)F)cc3)cc21 [10729/E05]
EGFR
  Biochem EGFR %Inhibition: 12.6%
PDGF-R
  PDGF Kinase %Inhibition: 29.9%
MET
  Met Kinase % Inhibition: 13.4%

## O=C1Nc2c(Br)cc(Br)cc2C1=Cc1ccc(N2CCCC2)cc1 [10729/A10]
EGFR
  Biochem EGFR %Inhibition: 28.7%
PDGF-R
  PDGF Kinase %Inhibition: -12.8%
MET
  Met Kinase % Inhibition: 34.8%

## Cc1c(Br)ccc2c1C(=Cc1cccc(Oc3ccccc3)c1)C(=O)N2 [10729/C06]
EGFR
  Biochem EGFR %Inhibition: 38.2%
PDGF-R
  PDGF Kinase %Inhibition: 3.1%
MET
  Met Kinase % Inhibition: 15.2%

## CNS(=O)(=O)c1ccc2c(c1)C(=Cc1ccccn1)C(=O)N2 [10729/D07]
EGFR
  Biochem EGFR %Inhibition: 21.4%
PDGF-R
  PDGF Kinase %Inhibition: -20.0%
MET
  Met Kinase % Inhibition: 25.5%

## COc1cc(C=C2C(=O)Nc3ccc(CCCl)cc32)cc(OC)c1 [10728/G04]
EGFR
  Biochem EGFR %Inhibition: -8.2%
PDGF-R
  PDGF Kinase %Inhibition: 0.5%
MET
  Met Kinase % Inhibition: 20.9%

## COc1cc(N(C)C)ccc1C=C1C(=O)Nc2ccc(S(=O)(=O)Nc3ccc(C(F)(F)F)cc3)cc21 [10728/E05]
EGFR
  Biochem EGFR %Inhibition: 7.4%
PDGF-R
  PDGF Kinase %Inhibition: 5.8%
MET
  Met Kinase % Inhibition: 53.4%

## Cc1ccsc1C=C1C(=O)Nc2ccc(I)cc21 [10729/B05]
EGFR
  Biochem EGFR %Inhibition: 50.6%
PDGF-R
  PDGF Kinase %Inhibition: -25.7%
MET
  Met Kinase % Inhibition: 51.0%

## O=C1Nc2c(Br)cc(Br)cc2C1=Cc1ccc([N+](=O)[O-])o1 [10718/A11]
EGFR
  Biochem EGFR %Inhibition: 21.2%
MET
  Met Kinase % Inhibition: 58.9%

## O=C1Nc2ccc(I)cc2C1=CC1C=CCCC1 (stereo not shown) [10729/B11]
EGFR
  Biochem EGFR %Inhibition: 18.8%
PDGF-R
  PDGF Kinase %Inhibition: 4.2%
MET
  Met Kinase % Inhibition: 36.6%

## Cc1c(O)ccc(C=C2C(=O)Nc3c(Br)cc(Br)cc32)c1O [10718/A09]
EGFR
  Biochem EGFR %Inhibition: -4.1%
MET
  Met Kinase % Inhibition: 67.7%

## COc1cc(Br)c(O)c(C=C2C(=O)Nc3ccc(I)cc32)c1 [10718/B03]
EGFR
  Biochem EGFR %Inhibition: -0.2%
MET
  Met Kinase % Inhibition: 77.9%

## O=C1Nc2c(Br)cc(Br)cc2C1=Cc1ccco1 [10718/A10]
EGFR
  Biochem EGFR %Inhibition: 41.5%
MET
  Met Kinase % Inhibition: 77.9%

## O=C1Nc2ccc(I)cc2C1=Cc1ccc2ccccc2c1O [10718/B04]
EGFR
  Biochem EGFR %Inhibition: 8.5%
MET
  Met Kinase % Inhibition: 63.9%

## CCOC(=O)c1cc(C=C2C(=O)Nc3ccc(I)cc32)oc1C [10718/B06]
EGFR
  Biochem EGFR %Inhibition: 28.5%
MET
  Met Kinase % Inhibition: 78.4%
